In series [1] the test system is HOC 8 human ovarian xenograft. Kind of series: Survival of mice bearing intraperitoneal HOC 8 xenograft. Type of series: in vivo. From the text:
In ovarian carcinoma patients the tumor spreads into the peritoneal cavity. Therefore to mimic clinical disease we have selected a human ovarian xenograft, HOC 8, which was transplanted intraperitoneally from ascites and disseminated in the peritoneal cavity.
When the two drugs were combined the effect was much greater than that of each drug given as single agent with a dramatic increase in survival. […] Three animals were still alive after 12 months, two of them belonging to the group receiving the high ET-743 dose. They were sacrificed and a detailed macroscopic and microscopic pathological evaluation was performed. The mouse belonging to the group receiving the low ET-743 dose was apparently cured as the microscopic analysis of liver, splen, pancreas, bone marrow, diagram, ovary uterus omentum and several lymphnodes were negative.

Series [2] relates to Ovary, STS gyn, Uterus tumors. The series can be described thus: Dose finding trial ET-743 day 1 & 8 followed by cisplatin: observed efficacy. In kind it is in vivo, human. The method, then: We designed a multicenter dose finding trial, on a day 1 & 8 every 3 weeks schedule, with escalating doses of ET given as a 3-hr infusion with steroids and antiemetic prophylaxis, followed 30 minutes later by 1 hr infusion cisplatin at a fixed dose of 40 mg/m^2, with 2 L NS hydration.
(§1) 36 patients were entered (15 with ovarian cancer, 6 with uterus cancer, 14 with soft tissue sarcoma, 1 with other tumor type). Prior treatments of the patients were the following:
The following table illustrates the observed efficacy: […]

Series [3] relates to human, murine and canine progenitor cells. To be noted: cited from earlier work.
The nature of series [4]: Toxicity of single i.v. doses of ET-743, DDP and their combination in xenograft experiments. In kind it is in vivo. To be noted: drug alone.
Protocol: For the administration of the drugs appropriate vehicles were injected, using the same schedule and route of injection as the drug therapies. […] In xenografts transplanted s.c. tumor growth was monitored and tumor weight (TW) was determined by measuring the tumor diameters with a Vernier caliper every 2-4 days and using the formula TW=d^2×D/2 (where d and D represent the shortest and the longest diameter respectively).
The format of series [5] is in vivo, human. As to conditions: ET-743 with carboplatin at a fixed target (300 mg/m^2), cycle 1 data from 11 patients. The method, then:
We designed a multicenter dose finding trial, on a day 1 every 3 weeks schedule, with carboplatin given at a fixed dose of 300 mg/m^2 as a 1 hour infusion followed by escalating doses of ET given as a 3 hours infusion with steroids and antiemetic prophylaxis.
11 patients were entered (6 with ovarian cancer, 1 with lung cancer, 4 with soft tissue sarcoma). Prior treatments of the patients were the following:
ET-743 doses levels were 500, 650 and 800 μg/m^2/day; 3-6 pts were treated per dose level according to toxicity.
The maximum tolerated dose (MTD) was defined as the highest dose level tested of the combination at which at least 2 patients experience a DLT in cycle 1. If one patient encountered drug-induced DLT during either cycle 1 or 2, up to a maximum of 6 patients could be treated at that level. If DLT was not observed in the additional patients, new patients could be treated at the next higher dose level.

Series [6] is described as follows: Dose finding trial ET-743 day 1 & 8 followed by cisplatin: toxicity. Type of series: in vivo, human. The method, then:
We designed a multicenter dose finding trial, […], with escalating doses of ET given as a 3-hr infusion with steroids and antiemetic prophylaxis, followed 30 minutes later by 1 hr infusion cisplatin at a fixed dose of 40 mg/m^2, with 2 L NS hydration.
as §1
ET-743 doses levels were 300, 400, 500, 600 and 700 μg/m^2/day; 3-6 were treated per dose level according to toxicity.
ET-743 escalation was uneventful until 500 μg/m^2; at 600 μg/m^2 patients were accrued in 2 separate risk cohort according to prior chemotherapy extent: low risk 1 regimen (LR); high risk ≧2 regimens (HR).

The nature of series [7]: Toxicity (body weight loss, toxic deaths) of split dose Q4×3. In kind it is in vivo. As to conditions: Q4×3, 1A9 xenograft experiment.

Like-named read-outs stand apart in the source and are kept apart here.

The text below walks through data of patent US20070128201A1, “Combined use of ecteinascidin-743 and platinum antineoplastic compounds” (Pharma Mar, S.A.U., priority 2003, published 2007).

The molecule `N.N.[Cl][Pt][Cl]` [DDP, cis-diaminedichloroplatinum (II), reference compound] yielded an increase in life span (ILS) in series [1] (DDP monotherapy) of 139%.

For the molecule `COc1cc2c(cc1O)CCN[C@]21CS[C@@H]2c3c(OC(C)=O)c(C)c4c(c3[C@H](COC1=O)N1C2[C@H]2c3c(cc(C)c(OC)c3O)C[C@@H]([C@@H]1O)N2C)OCO4` (some centres unmarked) [ET-743, ecteinascidin-743], the TTP in series [2] (patient: Ovary, prior carboplatin + taxol (NC), topotecan (PD), ET-743 400 μg/m^2 D 1&8 + cisplatin, Lung) is listed as 6 mos; in series [2] (patient: Ovary, prior carboplatin + taxol (NE), paclitaxel (PD), ET-743 600 μg/m^2 D 1&8 + cisplatin, Pelvis, liver), 6+ mos; in series [2] (patient: STS gyn, prior adriamycin/ifosfamide (AD), ET-743 700 μg/m^2 D 1&8 + cisplatin, Lung) it was 3+ mos; in series [2] (patient: STS-gyn, prior epirubicin + ifosfamide (AD), gemcitabine (PD), ET-743 500 μg/m^2 D 1&8 + cisplatin, Abdomen), 5+ mos; in series [2] (patient: Uterus Colon, prior carboplatin (NE), taxol + epirubicin + cisplatin (CR), ET-743 400 μg/m^2 D 1&8 + cisplatin, Bone, Pelvis, Lung) it was 1 mos. Also, the “BEST RESP” value in series [2] (patient: Ovary, prior carboplatin + taxol (PR), ET-743 600 μg/m^2 D 1&8 + cisplatin, Liver Abdomen) was “Unc PR”; in series [2] (patient: STS-gyn, prior epirubicin + ifosfamide (AD), gemcitabine (PD), ET-743 500 μg/m^2 D 1&8 + cisplatin, Abdomen, wrapped cell reads Radiological PR non measurable lesions), “Radiological”; in series [2] (patient: Uterus Colon, prior carboplatin (NE), taxol + epirubicin + cisplatin (CR), ET-743 400 μg/m^2 D 1&8 + cisplatin, Bone, Pelvis, Lung, wrapped cell reads Radiological PR non measurable lesions) it was “Radiological”. The “sensitivity of hematopoietic progenitors” value in series [3] was “equal sensitivity of erythropoid and myeloid cells”. Besides, the “maximal single i.v. dose that caused no toxic death” value in series [4] turned out to be 0.2 mg/kg. Further, the ILS in series [1] (ET-743 0.15 mg/kg, Q4×3, monotherapy) is listed as 23%; in series [1] (ET-743 0.05% (printed), Q4×3, monotherapy), 21%. Further, the MTD in series [5] was found to be 800 μg/m^2; in series [6] (ET-743 with cisplatin 40 mg/m^2, previously treated patients, day 1 & 8 every 4 weeks), 700 μg/m^2. In series [6] (human, in vivo), the “Recommended dose (RD)” value came out at 500 μg/m^2. Further, the “mean body weight loss” value in series [7] was 14%.
